Results on 19 molecules are retold here after ChEMBL document CHEMBL4266058, “2-Aminoadipic Acid-C(O)-Glutamate Based Prostate-Specific Membrane Antigen Ligands for Potential Use as Theranostics” (ACS Med Chem Lett, 2018).

Structures are written as SMILES.

Sequence of Glutamate carboxypeptidase 2 (Q04609 whole entry): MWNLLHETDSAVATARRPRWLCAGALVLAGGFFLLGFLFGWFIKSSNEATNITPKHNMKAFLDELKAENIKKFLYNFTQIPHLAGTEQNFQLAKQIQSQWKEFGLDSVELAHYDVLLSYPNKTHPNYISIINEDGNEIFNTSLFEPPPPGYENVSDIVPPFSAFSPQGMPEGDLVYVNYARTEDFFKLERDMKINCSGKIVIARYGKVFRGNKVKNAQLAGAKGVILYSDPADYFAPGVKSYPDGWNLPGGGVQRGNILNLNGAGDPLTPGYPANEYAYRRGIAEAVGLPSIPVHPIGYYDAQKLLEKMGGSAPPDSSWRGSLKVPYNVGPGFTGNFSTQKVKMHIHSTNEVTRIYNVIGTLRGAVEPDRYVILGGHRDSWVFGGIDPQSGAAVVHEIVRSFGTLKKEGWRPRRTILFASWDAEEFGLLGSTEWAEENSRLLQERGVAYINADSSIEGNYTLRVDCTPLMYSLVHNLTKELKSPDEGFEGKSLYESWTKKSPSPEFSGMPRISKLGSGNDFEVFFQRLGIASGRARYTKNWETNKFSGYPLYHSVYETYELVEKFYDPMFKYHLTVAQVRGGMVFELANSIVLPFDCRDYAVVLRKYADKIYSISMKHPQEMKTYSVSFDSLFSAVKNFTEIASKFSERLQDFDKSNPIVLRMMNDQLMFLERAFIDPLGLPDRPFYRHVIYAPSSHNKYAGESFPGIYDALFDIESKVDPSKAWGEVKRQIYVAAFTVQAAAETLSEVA

This test addresses Glutamate carboxypeptidase 2 (Homo sapiens, UniProt Q04609). Kind of test: Inhibition of recombinant human PSMA using [3H]NAAG as substrate preincubated for 15 mins followed by substrate addition measured after 20 mins by liquid scintillation method.
A word on the IC50: it is the midpoint of a concentration-inhibition curve. `O=C(O)CC[C@H](NC(=O)N[C@@H](CCCC(=O)Nc1ccc(F)nc1)C(=O)O)C(=O)O`: the IC50 came to 0.99 nM.

As to `O=C(O)CC[C@H](NC(=O)N[C@@H](CCCC(=O)NCc1cccc(F)c1)C(=O)O)C(=O)O`, the IC50 amounted to 2.91 nM. Next, `O=C(O)CC[C@H](NC(=O)N[C@@H](CCCC(=O)NC(c1ccc(F)cc1)c1ccc(F)cc1)C(=O)O)C(=O)O`: 1.19 nM. As to `O=C(O)CC[C@H](NC(=O)N[C@@H](CCCC(=O)Nc1cccc(F)c1)C(=O)O)C(=O)O`, the IC50 was 0.28 nM. As for `C[C@H](NC(=O)CCC[C@H](NC(=O)N[C@@H](CCC(=O)O)C(=O)O)C(=O)O)c1ccc(F)cc1`, the IC50 is 5.24 nM.

Consider `O=C(O)CC[C@H](NC(=O)N[C@@H](CCCC(=O)N(CCNC(=O)c1ccc(F)nc1)c1ccccc1)C(=O)O)C(=O)O`, for which the IC50 was found to be 0.13 nM.

As to `O=C(O)CC[C@H](NC(=O)N[C@@H](CCCC(=O)NCc1ccc(F)cc1)C(=O)O)C(=O)O`, the IC50 turned out to be 2.32 nM. With `C[C@H](NC(=O)CCC[C@H](NC(=O)N[C@@H](CCC(=O)O)C(=O)O)C(=O)O)c1ccc(F)nc1` the figure was 4.46 nM; with `O=C(O)CC[C@H](NC(=O)N[C@@H](CCCC(=O)NCc1ccccc1F)C(=O)O)C(=O)O`, 2.11 nM; with `O=C(O)CC[C@H](NC(=O)N[C@@H](CCCC(=O)Nc1ccc(F)cc1)C(=O)O)C(=O)O`, 0.35 nM. With `CN(C(=O)CCC[C@H](NC(=O)N[C@@H](CCC(=O)O)C(=O)O)C(=O)O)c1ccc(F)cc1` the figure was 0.2 nM; with `CN(Cc1ccc(F)cc1)C(=O)CCC[C@H](NC(=O)N[C@@H](CCC(=O)O)C(=O)O)C(=O)O`, 0.64 nM. With `O=C(O)CC[C@H](NC(=O)N[C@@H](CCCC(=O)N(CCNC(=O)c1ccc(F)cc1)c1ccccc1)C(=O)O)C(=O)O` the figure was 0.15 nM; with `CN(C(=O)CCC[C@H](NC(=O)N[C@@H](CCC(=O)O)C(=O)O)C(=O)O)c1ccc(F)nc1`, 0.075 nM. For the molecule `O=C(O)CC[C@H](NC(=O)N[C@@H](CCCC(=O)N1CCN(c2ccc(F)cc2)CC1)C(=O)O)C(=O)O`, the IC50 stood at 1.31 nM. Next, `O=C(O)CC[C@H](NC(=O)N[C@@H](CCCC(=O)NCCNC(=O)c1ccc(F)nc1)C(=O)O)C(=O)O`: 1.11 nM. With `CN(Cc1cccc(F)c1)C(=O)CCC[C@H](NC(=O)N[C@@H](CCC(=O)O)C(=O)O)C(=O)O` the figure was 0.46 nM; with `C[C@@H](NC(=O)CCC[C@H](NC(=O)N[C@@H](CCC(=O)O)C(=O)O)C(=O)O)c1ccc(F)cc1`, 5.44 nM. With `O=C(O)CC[C@H](NC(=O)N[C@@H](CCCC(=O)NCCNC(=O)c1ccc(F)cc1)C(=O)O)C(=O)O` the figure was 0.94 nM.
